Experimental data from US20200270557A1, “HUMAN IN VITRO ORTHOTOPIC AND METASTATIC MODELS OF CANCER” (PRESIDENT AND FELLOWS OF HARVARD COLLEGE, priority 2017, published 2020).

How the values were obtained:
H1975 NSCLC cells [1] = test: growth inhibition of H1975 NSCLC cells cultured alone under conventional static culture conditions; type: cell-based; settings: Homo sapiens, NCI-H1975, read-out: half-maximal inhibition
H1975 NSCLC cells [2] = test: NSCLC cancer cell growth in microfluidic device (orthotopic lung model) with or without breathing motions; type: cell-based, human; settings: H1975 NSCLC cells cultured within the microfluidic devices
Description: Primary human lung microvascular endothelial cells were plated the same way as discussed above, except that these cells were plated first with endothelial growth medium. The GFP-labeled NSCLC tumor cells and primary alveolar epithelial cells were then plated using the same method as described above. The following day, the upper microchannel was perfused with epithelial growth medium containing 1 μM dexamethasone and flushed manually for 2-3 days, after which the medium in the upper microchannel was removed to create an air-liquid interface, while the lower microchannel was continuously perfused with air-liquid interface medium at 60 μL/hr. […]
Analysis of cancer cell growth and responses of cancer cells can be monitored visually through the microfluidic device. As discussed above, cancer cell growth can be monitored non-invasively using fluorescence microscopy, such as with a Zeiss TIRF/LSM 710 confocal microscopy and Hamamatsu ImagEM-1K BackThinned EMCCD camera. The number of GFP-labeled cancer cells can be estimated using fluorescence microscopy based on a standard curve generated experimentally that correlates cell density to GFP fluorescence intensity. […]

c-Met = c-Met expression and phosphorylation in NSCLC cells under cyclic mechanical strain; type: cell-based, human
Description: Further, many patients with the EGFR […]/T790M mutation who develop resistance to 3rd generation TKIs overexpress the tyrosine protein kinase c-Met, and c-MET overexpression has been implicated as a mechanism of resistance to TKI therapy in NSCLC patients. […] Thus, mechanical breathing motions also may suppress NSCLC cell response to TKI therapy by altering this signaling pathway.

IC50 (H1975 NSCLC cells [1]) [nM]	SMILES	response of NSCLC cells to TKIs (H1975 NSCLC cells [2])	effect of increasing dose on expression and phosphorylation of c-Met (c-Met)
~100	C#Cc1cccc(Nc2ncnc3cc(OCCOC)c(OCCOC)cc23)c1 [erlotinib]	responded	
> 1000	C=CC(=O)Nc1cccc(Nc2nc(Nc3ccc(N4CCN(C(C)=O)CC4)cc3OC)ncc2C(F)(F)F)c1 [rociletinib]		no significant effect
